Test results taken from patent publication US20240415828A1, “TLR7 AGONIST AND COMBINATIONS FOR CANCER TREATMENT” (BIONTECH SE, priority 2021, published 2024).

Experiments:
solid tumor = experiment: Clinical trial Part 1A, BNT411 monotherapy dose escalation; format: in vivo, human
Protocol: FIG. 8. Release of certain cytokines from preparations obtained from whole blood of human patients treated with BNT411 at various dose levels. Mean maximum fold change (+SD) calculated from the highest cytokine value observed on day 1 in treatment cycle 1 relative to baseline. IFNα and IL-6 peaked 4 to 8 hours after treatment, IP-10 and TNFa peaked 2.5 to 8 hours after treatment.
To this end, a trial was designed to assess the safety profile of BNT411 in monotherapy and in combination with atezolizumab, etoposide, and carboplatin (atezo/EC) and to determine the maximum tolerated dose/recommended phase 2 dose (MTD/RP2D). This trial comprised two parts (1A and 1B) with dose escalation, wherein the patients of part 1A received BNT411 monotherapy and patients of part 1B received BNT411 together with atezolizumab, etoposide, and carboplatin. The patients had solid tumor (preferably ES-SCLC for part 1B) and received the drugs according to the following dosing schedule (until disease progression, unacceptable toxicity, or death): • Part 1A: 3-week cycles, BNT411 i.v. Q1W for 4 cycles, then Q3W • Part 1B: 3-week cycles, BNT411 i.v. Q1W for 4 cycles, then Q3W; atezo/EC Q3W
DL1-DL3 of Part 1A were single-patient cohorts, all other dose levels were 3+3 cohorts.
Efficacy was assessed by CT/MRI imaging according to RECIST 1.1 and iRECIST every 6 weeks for 48 weeks, and every 12 weeks thereafter. Safety was assessed by physical examination, vital signs, electrocardiogram, clinical laboratory assessments, eye examinations, ECOG, pregnancy testing, and ECHO/MUGA. Biomarker assessments included tumor biopsies and blood sampling for cytokine analysis, immune phenotyping, tumor mutational burden, and TCR profiling.
As of Aug. 26, 2021, the patients were located in seven trial centers (UK, USA, Spain, Germany). Twenty-five patients were screened (Part 1A: 22; Part 1B: 3) with seven screen failures (all Part 1A). Eighteen patients enrolled (Part 1A: 15; Part 1B: 3), wherein fifteen patients were evaluable (Part 1A: 12; Part 1B: 3). Two Part 1A patients were replaced (at DL1 due to incorrect dosing and at DL5 due to PD before DLT evaluation completed). One Part 1A patient dropped out of trial before receiving treatment.
The trial population consists of histologically confirmed solid tumor patients with metastatic or unresectable disease for which there is no available standard therapy likely to confer clinical benefit, or patients who are not candidates for such available therapy.

[1] = tested on: CT26 colon carcinoma cells; experiment: CT26 tumor model, BNT411 alone and with anti-PD-L1 antibody (Example 5); format: in vivo; conditions: no adverse clinical effects, higher toxicities, or body weight loss
Protocol: FIG. 6. Anti-tumoral efficacy of BNT411 alone and in combination with an anti-PD-L1 antibody in a tumor mouse model. Mice (n=10 per group) subcutaneously inoculated with 5×10^5 CT26 colon carcinoma cells were used as tumor mouse model. The anti-PD-L1 antibody anti-PD-L1-mIgG1e3 was administered intraperitoneally (i.p.) at a dose level of 200 μg per animal. BNT411 was administered i.v. at a dose level of 3 mg/kg. All treatments were delivered once every five days for a total of six doses. Body weight changes and tumor growth were assessed on study day 21 when there were at least nine animals alive in each group. (A) Dosing schedule. (B) Graph showing the tumor volumes vs. study day. Mean tumor volume±SEM (mm^3) is depicted for each treatment. Last observations were carried forward until day 35 when only the animal who cleared the tumor was left. […]
BALB/c mice were inoculated s.c. with 2.5×10^5−5×10^5 CT26-WT into the flank, respectively. […] Tumor volume was measured unblinded with a caliper and calculated using the formula (a×b^2)/2 (a being the largest and b being the smallest diameter of the tumor). […]
Four groups of 10 animals were inoculated with 1×10^6 CT26 cells per animal into the dorsal right flank (day 0). […] Body weight changes and tumor growth were assessed on study day 21 when there were at least nine animals alive in each group. […]

[2] = Part 1A, patients (%), as of Aug. 26, 2021
[3] = Part 1A, patients, as of Aug. 26, 2021

COCCc1nc2c(N)nc3ccccc3c2n1CCCCN(C(C)=O)C1CCOCC1 [BNT411]
cytokine changes (solid tumor; DL1A, DL2A, or DL3A (0.05-0.45 μg/kg)): No meaningful cytokine changes | induction of IFN-a and IP-10 (solid tumor; DL5 onwards, substantially starting at DL6, data update October 2022): increased | IL-6 induction (solid tumor; DL6A): some increase | IP-10 level relative to assay range (solid tumor; DL6A): upper limit of detection of the assay was reached | induction of IFNa, IP-10, and other mode-of-action relevant cytokines (solid tumor; DL6A (4.8 μg/kg)): substantial induction | tumor response (RECIST 1.1), third patient (solid tumor; DL7, trial Day 251, still on treatment): partial response | dose limiting toxicity (DLT), or related grade 4-5 AEs (solid tumor; Part 1A): no | TEAEs related to BNT411 monotherapy: Anaemia, Grade 4 (solid tumor; [2]): 2 (13%) | TEAEs related to BNT411 monotherapy: Blood bilirubin increased, Grade 4 (solid tumor; [2]): 1 (7%) | TEAEs related to BNT411 monotherapy: Chills, Grade 4 (solid tumor; [2]): 2 (13%) | TEAEs related to BNT411 monotherapy: Diarrhoea, Grade 4 (solid tumor; [2]): 1 (7%) | TEAEs related to BNT411 monotherapy: Fatigue, Grade 4 (solid tumor; [2]): 1 (7%) | TEAEs related to BNT411 monotherapy: Headache, Grade 4 (solid tumor; [2]): 1 (7%) | TEAEs related to BNT411 monotherapy: Hyperbilirubinaemia, Grade 4 (solid tumor; [2]): 1 (7%) | TEAEs related to BNT411 monotherapy: Hypotension, Grade 4 (solid tumor; [2]): 1 (7%) | TEAEs related to BNT411 monotherapy: Illness, Grade 4 (solid tumor; [2]): 1 (7%) | TEAEs related to BNT411 monotherapy: Infusion related reaction, Grade 4 (solid tumor; [2]): 1 (7%) | TEAEs related to BNT411 monotherapy: Nausea, Grade 4 (solid tumor; [2]): 1 (7%) | TEAEs related to BNT411 monotherapy: Neutropenia, Grade 4 (solid tumor; [2]): 1 (7%) | TEAEs related to BNT411 monotherapy: Pruritus, Grade 4 (solid tumor; [2]): 1 (7%) | TEAEs related to BNT411 monotherapy: Pyrexia, Grade 4 (solid tumor; [2]): 3 (20%) | TEAEs related to BNT411 monotherapy: Total number of patients with TEAEs, Grade 4 (solid tumor; [2]): 7 (47%) | TEAEs related to BNT411 monotherapy: Anaemia, Grade 1 (solid tumor; [3]): 1 | TEAEs related to BNT411 monotherapy: Anaemia, Grade 3 (solid tumor; [3]): 1 | TEAEs related to BNT411 monotherapy: Blood bilirubin increased, Grade 1 (solid tumor; [3]): 1 | TEAEs related to BNT411 monotherapy: Chills, Grade 1 (solid tumor; [3]): 2 | TEAEs related to BNT411 monotherapy: Diarrhoea, Grade 2 (solid tumor; [3]): 1 | TEAEs related to BNT411 monotherapy: Fatigue, Grade 2 (solid tumor; [3]): 1 | TEAEs related to BNT411 monotherapy: Headache, Grade 1 (solid tumor; [3]): 1 | TEAEs related to BNT411 monotherapy: Hyperbilirubinaemia, Grade 1 (solid tumor; [3]): 1 | TEAEs related to BNT411 monotherapy: Hypotension, Grade 1 (solid tumor; [3]): 1 | TEAEs related to BNT411 monotherapy: Illness, Grade 1 (solid tumor; [3]): 1 | TEAEs related to BNT411 monotherapy: Infusion related reaction, Grade 2 (solid tumor; [3]): 1 | TEAEs related to BNT411 monotherapy: Nausea, Grade 1 (solid tumor; [3]): 1 | TEAEs related to BNT411 monotherapy: Neutropenia, Grade 1 (solid tumor; [3]): 1 | TEAEs related to BNT411 monotherapy: Pruritus, Grade 1 (solid tumor; [3]): 1 | TEAEs related to BNT411 monotherapy: Pyrexia, Grade 1 (solid tumor; [3]): 1 | TEAEs related to BNT411 monotherapy: Pyrexia, Grade 2 (solid tumor; [3]): 2 | safety profile (solid tumor; all doses tested as of Aug. 26, 2021 (up to DL6)): acceptable safety profile | time of IFNa and IL-6 peak after treatment (solid tumor; day 1, treatment cycle 1): 4 to 8 h | time of IP-10 and TNFa peak after treatment (solid tumor; day 1, treatment cycle 1): 2.5 to 8 h | AEs related to BNT411 monotherapy: chills, share of patients (solid tumor; grade 1, Part 1A DL1 and DL6): 13% | AEs related to BNT411 monotherapy: pyrexia, share of patients (solid tumor; grades 1 and 2, Part 1A DLs 1*, 2, and 6): 20% | AEs related to BNT411 monotherapy: anaemia, share of patients (solid tumor; grades 1 and 3, Part 1A DL4 and DL5): 13% | tumor response (RECIST 1.1), second patient (solid tumor; intermediate dose level between DL6 and DL7, as of Day 420): stable disease | change in sum of target lesion diameters compared with baseline, second patient (solid tumor; intermediate dose level between DL6 and DL7, trial Day 86): −26.2% | cytokine release (solid tumor; ten patients, DL4A, DL5A, DL6A): dose-dependent cytokine release | serious adverse events with a possible causal relationship to BNT411 monotherapy (solid tumor; two cases of infusion-related reaction, grades 1 and 2, same patient, Part 1A DL6): Two | tumor response (RECIST 1.1), patient started at DL4, increased to DL5 (C8D1) and DL6 (C12D1) (solid tumor; until trial Day 449, cutoff Oct. 13, 2022): stable disease | overall safety profile (solid tumor; up to DL6, data update October 2022): acceptable overall safety profile | TNFa induction levels (solid tumor; up to DL6A): remained unchanged | tolerability throughout treatment [1]: well tolerated
